In patent US9056152B2, “Medical device with crystalline drug coating” (Boston Scientific Scimed, Inc., priority 2011, dated 2015):

Tests used:
[1] = Porcine animal study of everolimus coated stents: drug in artery tissue (LC/MS) and drug remaining on stent (HPLC); type: in vivo, common swine; settings: explanted at 28 days; for Tissue content at 28 days: 130 μg on 12 mm stents implanted in coronary and internal thoracic arteries of swine, drug in arteries by LC/MS; for % drug left on stent at 28 days: 130 μg on 12 mm stents implanted in swine arteries, drug remaining on stent by HPLC
Description: Stents coated with either crystalline or amorphous everolimus (130 μg on 12 mm stents) were implanted in the coronary arteries and internal thoracic arteries of common swine. The stented vessels were explanted after 3 hrs, 24 hrs, 7, 14 and 28 days. N=3 stents per timepoint were used. After sacrifice the stents were removed from the arteries and the amount of drug in the arteries was determined by LC/MS. The amount of drug remaining on the stent was determined by HPLC.

[2] = Everolimus solubility in water @ 37° C., amorphous vs crystalline form; type: physicochemical; settings: data shown in FIG. 1
Description: FIG. 1 is a graph comparing everolimus solubility data in water @ 37° C. for amorphous and crystalline forms.

[3] = listed as crystalline everolimus

SMILES	Tissue content at 28 days [1] [ng/mg]	Tissue content at 28 days ([1]; listed as amorphous everolimus)	% drug left on stent at 28 days [1] [%]	% drug left on stent at 28 days ([1]; listed as amorphous drug)	Tissue content at 28 days [1, 3] [ng/mg]	% drug left on stent at 28 days [1, 3] [%]	solubility in water [2]
CO[C@H]1C[C@@H]2CC[C@@H](C)[C@@](O)(O2)C(=O)C(=O)N2CCCC[C@H]2C(=O)O[C@H]([C@H](C)C[C@@H]2CC[C@@H](OCCO)[C@H](OC)C2)CC(=O)[C@H](C)/C=C(\C)[C@@H](O)[C@@H](OC)C(=O)[C@H](C)C[C@H](C)/C=C/C=C/C=C/1C [Amorphous Everolimus, 40-O-(2-Hydroxyethyl)rapamycin]	0.04	essentially no drug in the tissue	0	no drug remaining on the stents	–	–	–
CO[C@H]1C[C@@H]2CC[C@@H](C)[C@@](O)(O2)C(=O)C(=O)N2CCCC[C@H]2C(=O)O[C@H]([C@H](C)C[C@@H]2CC[C@@H](OCCO)[C@H](OC)C2)CC(=O)[C@H](C)/C=C(\C)[C@@H](O)[C@@H](OC)C(=O)[C@H](C)C[C@H](C)/C=C/C=C/C=C/1C [Crystalline Everolimus, 40-O-(2-Hydroxyethyl)rapamycin]	6.1	–	25.8	–	6	25	much lower solubility in water than amorphous everolimus
